Measured values published in the NIST ThermoML archive (doi:10.1016/j.fluid.2014.09.020).

Test: mn = molality of the nth substance listed, in mol/kg
Conditions: 101 kPa, Liquid; for viscosity: Capillary tube (Ostwald / Ubbelohde) method; for electrical conductivity: Direct current cell with electrodes; for mass density: Vibrating tube method

CCC[N+]1(C)CCCCC1.[Br-] [1-methyl-1-propylpiperidinium bromide] + O
Conditions	electrical conductivity [S/m]	mass density [kg/m3]	viscosity [mPa·s]
293.15 K, m1 = 0.2501	1.61	1008.72	1.291
293.15 K, m1 = 0.5	2.44	1018.24	1.402
293.15 K, m1 = 0.75	3.08	1027.42	1.529
293.15 K, m1 = 0.9998	3.57	1036.22	1.669
293.15 K, m1 = 1.25	3.91	1044.44	1.84
293.15 K, m1 = 1.5	4.14	1052.29	2.03
293.15 K, m1 = 1.75	4.29	1059.77	2.216
293.15 K, m1 = 2.001	4.38	1066.77	2.419
293.15 K, m1 = 2.2	4.41	1072.13	2.604
293.15 K, m1 = 2.4	4.44	1077.21	2.792
298.15 K, m1 = 0.2501	1.75	1007.5	1.178
298.15 K, m1 = 0.5	2.64	1016.88	1.259
298.15 K, m1 = 0.75	3.33	1025.92	1.356
298.15 K, m1 = 0.9998	3.86	1034.59	1.466
298.15 K, m1 = 1.25	4.23	1042.69	1.607
298.15 K, m1 = 1.5	4.48	1050.42	1.769
298.15 K, m1 = 1.75	4.65	1057.79	1.922
298.15 K, m1 = 2.001	4.76	1064.7	2.091
298.15 K, m1 = 2.2	4.81	1069.98	2.249
298.15 K, m1 = 2.4	4.85	1074.98	2.408
303.15 K, m1 = 0.2501	1.9	1006.09	1.044
303.15 K, m1 = 0.5	2.83	1015.33	1.116
303.15 K, m1 = 0.75	3.57	1024.23	1.203
303.15 K, m1 = 0.9998	4.14	1032.75	1.302
303.15 K, m1 = 1.25	4.54	1040.75	1.424
303.15 K, m1 = 1.5	4.82	1048.38	1.559
303.15 K, m1 = 1.75	5.04	1055.64	1.688
303.15 K, m1 = 2.001	5.18	1062.46	1.827
303.15 K, m1 = 2.2	5.24	1067.67	1.951
303.15 K, m1 = 2.4	5.3	1072.61	2.073
308.15 K, m1 = 0.2501	2.04	1004.66	0.9225
308.15 K, m1 = 0.5	3.03	1013.72	0.9723
308.15 K, m1 = 0.75	3.82	1022.62	1.037
308.15 K, m1 = 0.9998	4.43	1030.82	1.113
308.15 K, m1 = 1.25	4.86	1038.67	1.206
308.15 K, m1 = 1.5	5.16	1046.1	1.311
308.15 K, m1 = 1.75	5.4	1053.72	1.417
308.15 K, m1 = 2.001	5.57	1060.11	1.53
308.15 K, m1 = 2.2	5.65	1065.32	1.629
308.15 K, m1 = 2.4	5.72	1070.23	1.728

CCCC[N+]1(C)CCCCC1.[Br-] [N-butyl-N-methylpiperidinium bromide] + O
Conditions	electrical conductivity [S/m]	mass density [kg/m3]	viscosity [mPa·s]
293.15 K, m1 = 0.25	1.58	1008.15	1.271
293.15 K, m1 = 0.5006	2.29	1017.18	1.451
293.15 K, m1 = 0.7499	2.83	1025.78	1.631
293.15 K, m1 = 0.9999	3.23	1034.01	1.819
293.15 K, m1 = 1.25	3.5	1041.71	2.004
293.15 K, m1 = 1.5	3.66	1049.03	2.199
293.15 K, m1 = 1.75	3.77	1055.94	2.422
293.15 K, m1 = 2	3.83	1062.38	2.663
293.15 K, m1 = 2.2	3.85	1067.29	2.863
293.15 K, m1 = 2.4	3.87	1071.91	3.084
298.15 K, m1 = 0.25	1.64	1006.6	1.114
298.15 K, m1 = 0.5006	2.44	1015.55	1.283
298.15 K, m1 = 0.7499	3.04	1024.1	1.442
298.15 K, m1 = 0.9999	3.49	1032.29	1.598
298.15 K, m1 = 1.25	3.78	1039.86	1.75
298.15 K, m1 = 1.5	3.96	1047.06	1.907
298.15 K, m1 = 1.75	4.08	1053.87	2.087
298.15 K, m1 = 2	4.15	1060.17	2.287
298.15 K, m1 = 2.2	4.17	1064.99	2.457
298.15 K, m1 = 2.4	4.2	1069.52	2.649
303.15 K, m1 = 0.25	1.77	1004.71	0.9885
303.15 K, m1 = 0.5006	2.61	1013.61	1.133
303.15 K, m1 = 0.7499	3.26	1022.18	1.266
303.15 K, m1 = 0.9999	3.75	1030.35	1.394
303.15 K, m1 = 1.25	4.09	1037.65	1.528
303.15 K, m1 = 1.5	4.32	1044.94	1.67
303.15 K, m1 = 1.75	4.48	1051.69	1.812
303.15 K, m1 = 2	4.57	1057.79	1.972
303.15 K, m1 = 2.2	4.6	1062.59	2.119
303.15 K, m1 = 2.4	4.63	1066.98	2.279
308.15 K, m1 = 0.25	1.86	1002.93	0.882
308.15 K, m1 = 0.5006	2.77	1011.89	0.98
308.15 K, m1 = 0.7499	3.47	1020.33	1.078
308.15 K, m1 = 0.9999	4.01	1028.69	1.179
308.15 K, m1 = 1.25	4.39	1035.69	1.282
308.15 K, m1 = 1.5	4.64	1043.08	1.392
308.15 K, m1 = 1.75	4.82	1049.51	1.511
308.15 K, m1 = 2	4.92	1055.41	1.639
308.15 K, m1 = 2.2	4.96	1060.23	1.749
308.15 K, m1 = 2.4	4.99	1064.28	1.868

CC[N+]1(C)CCCCC1.[Br-] [N-ethyl-N-methylpiperidinium bromide] + O
Conditions	electrical conductivity [S/m]	mass density [kg/m3]	viscosity [mPa·s]
293.15 K, m1 = 0.2501	1.67	1009.34	1.412
293.15 K, m1 = 0.5	2.69	1019.49	1.432
293.15 K, m1 = 0.75	3.46	1029.24	1.492
293.15 K, m1 = 0.9992	4.01	1038.65	1.587
293.15 K, m1 = 1.25	4.41	1047.4	1.707
293.15 K, m1 = 1.5	4.68	1055.5	1.849
293.15 K, m1 = 1.75	4.84	1063.82	2.021
293.15 K, m1 = 1.998	4.94	1071.67	2.208
293.15 K, m1 = 2.2	5.03	1077.12	2.361
293.15 K, m1 = 2.4	5.12	1082.45	2.521
298.15 K, m1 = 0.2501	1.94	1007.59	1.254
298.15 K, m1 = 0.5	2.92	1017.73	1.274
298.15 K, m1 = 0.75	3.72	1027.52	1.325
298.15 K, m1 = 0.9992	4.36	1036.99	1.401
298.15 K, m1 = 1.25	4.82	1045.62	1.516
298.15 K, m1 = 1.5	5.14	1053.61	1.655
298.15 K, m1 = 1.75	5.42	1061.89	1.787
298.15 K, m1 = 1.998	5.61	1069.59	1.932
298.15 K, m1 = 2.2	5.68	1074.97	2.069
298.15 K, m1 = 2.4	5.73	1080.2	2.2
303.15 K, m1 = 0.2501	2.02	1005.68	1.038
303.15 K, m1 = 0.5	3.08	1015.67	1.091
303.15 K, m1 = 0.75	3.95	1025.8	1.161
303.15 K, m1 = 0.9992	4.65	1034.64	1.248
303.15 K, m1 = 1.25	5.15	1043.44	1.349
303.15 K, m1 = 1.5	5.5	1051.59	1.46
303.15 K, m1 = 1.75	5.81	1059.87	1.583
303.15 K, m1 = 1.998	6.02	1067.36	1.712
303.15 K, m1 = 2.2	6.09	1072.73	1.82
303.15 K, m1 = 2.4	6.15	1077.82	1.931
308.15 K, m1 = 0.2501	2.24	1003.67	0.8791
308.15 K, m1 = 0.5	3.29	1013.78	0.9294
308.15 K, m1 = 0.75	4.2	1023.78	0.9953
308.15 K, m1 = 0.9992	4.98	1032.63	1.074
308.15 K, m1 = 1.25	5.54	1041.4	1.163
308.15 K, m1 = 1.5	5.93	1049.3	1.26
308.15 K, m1 = 1.75	6.34	1057.7	1.363
308.15 K, m1 = 1.998	6.61	1064.48	1.469
308.15 K, m1 = 2.2	6.66	1070.15	1.554
308.15 K, m1 = 2.4	6.69	1075.12	1.639
